Consider 5 molecules from PMC8648968 (The FEBS journal, 2021).

What is called Ki is the dissociation constant of the complex between target and ligand, obtained from inhibition or displacement. A low value points to higher affinity. In general, Kd refers to a measure of binding affinity in units of concentration.

The test system of data set [1] is HCE cells. In words: Hst1 localization by immunofluorescence after DTG pretreatment. Format: cell-based, human. The settings on record: pretreatment with escalating concentrations of DTG (Fig. S4).
Data set [2] addresses full-length TMEM97 (Homo sapiens, UniProt Q5BJF2). The data set is described as follows: SPR, recombinant full-length TMEM97. Format: binding. The settings on record: Biacore 8K, pH 7.4, 25 °C. A general note: Surface plasmon resonance follows binding to a sensor surface in real time, without labels.
In data set [3] the target is GST-TMEM97 (108-176) (Homo sapiens, UniProt Q5BJF2). In words: SPR, recombinant GST-TMEM97. Format: binding. The conditions noted are these: Biacore 8K, pH 7.4, 25 °C.
Data set [4] addresses synthetic TMEM97 (108-176) (Homo sapiens, UniProt Q5BJF2). The data set is described as follows: SPR, synthetic TMEM97. Format: binding. The settings on record: Biacore 8K, pH 7.4, 25 °C.
In data set [5] the test system is TMEM97 (108-176). In words: Circular dichroism, secondary structure on mixing with TMEM97. Format: binding. The settings on record: CD, pH 7.4, 0.05% DDM, room temperature. For orientation: Circular dichroism is widely used to follow secondary structure.
The subject of data set [6] is HSC70. The conditions noted are these: cited from earlier work.
Data set [7] is described as follows: Circular dichroism, secondary structure of peptide alone in solution. Format: physicochemical. The settings on record: CD, TMEM97 (108-176) alone, pH 7.4, 0.05% DDM, room temperature, DichroWeb.
The target of data set [8] is TMEM97 (S2R) overexpressed in HEK293T cell membranes (UniProt Q5BJF2 1-176). In words: radioligand binding.
For data set [9], the target named is Recombinant full-length TMEM97 (Sigma-2 receptor) (UniProt Q5BJF2 1-176). The data set is described as follows: SPR.
The target in data set [10] is Recombinant GST-TMEM97 (108-176) (UniProt Q5BJF2 108-176). The data set is described as follows: SPR.
The target of data set [11] is T1, Synthetic TMEM97 (108-176).
T1 peptide: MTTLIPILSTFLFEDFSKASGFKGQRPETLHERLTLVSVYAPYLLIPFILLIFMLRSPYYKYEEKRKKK
In words: SPR.

“Also recorded” adds a separate entry of the source. Where no end group is shown, it is not given here. [ ]: non-standard residue; d: D form. pS = N[C@@H](COP(=O)(O)O)C(=O)O

Sequence of full-length TMEM97 (Q5BJF2 whole entry): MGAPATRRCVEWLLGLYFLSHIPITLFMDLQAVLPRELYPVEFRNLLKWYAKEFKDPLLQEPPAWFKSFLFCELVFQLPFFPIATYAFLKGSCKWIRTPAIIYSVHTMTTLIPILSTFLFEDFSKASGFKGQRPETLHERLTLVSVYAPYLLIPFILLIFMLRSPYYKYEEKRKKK

Regarding `Cc1ccccc1NC(=N)Nc1ccccc1C` [DTG, 1,3-di-o-tolylguanidine], the “Effect on Hst1 localization” value in data set [1] is on record as “Hst1 localization is reduced by pretreatment with DTG”.
In the case of “HYHKFHRYYDPGSNLYKEHNHGFHHGYKDEFRREpSRDS [Hst1SP]”, the “Binding by SPR (in words)” value is “did not exhibit binding; also recorded: unable to bind” in [2], “did not exhibit binding; also recorded: unable to bind” in data set [3] and “did not bind” in [4]. For the same molecule, the “Change of secondary structure on mixing with TMEM97 (108-176)” value in data set [5] was “did not induce increased secondary structural features; also recorded: did not induce increased secondary structural elements”.
Regarding “Hst3: histatin-3, histatin family peptide cited from Imamura et al. (DSHAKRHHGYKRKFHEKHHSHRGYRSNYLYDN; Histatin-3; UniProt P15516 20-51, looked up)”, the “Interaction with HSC70” value in [6] was “interact with, but not clearly directly bind”.
In data set [7], “MTTLIPILSTFLFEDFSKASGFKGQRPETLHERLTLVSVYAPYLLIPFILLIFMLRSPYYKYEEKRKKK [TMEM97 (108-176)]” came in with a Turns content of 14%, an Unordered content of 17% and a β-strand content of 23%.
As for D[pS]HEKRHHGYRRKFHEKHHSHREFPFYGDYGSNYLYDN [Histatin-1 (Hst1)], in data set [8], the Ki worked out at 0.239 µM. The figures for the Kd in [9], in data set [10] and in [11] were 5.3 µM, 6.6 µM and 6.3 µM, respectively.
